For one test, the system named is IL-6. Briefly: Anti-inflammatory test: IL-6 in UVB-stimulated keratinocytes. It counts as cell-based, human. As to conditions: UV-B 50 mJ/cm^2 irradiated keratinocytes, 24 h, supernatant, maximum non-cytotoxic dose (combinations: half dose each). The protocol:
(§1) Cell culture: HaCat, a normal human epidermal keratinocyte (NHEK) cell line, was purchased from Wuhan Saios Biotechnology Co., Ltd. The cells were stored in a humid environment (95% air and 5% carbon dioxide at 37° C.) and cultured in DMEM supplemented with 10% heat inactivated FBS, 2 mM glutamine and 1% penicillin/streptomycin. The culture was harvested and the cell morphology was examined by phase contrast microscope. Cell suspension was counted with a hemocytometer (Marienfeld, Germany) to monitor the number of cells.
(§2) UVB stimulation: Keratinocytes were inoculated into a 12-well plate (50,000 cells/mL) and cultured to a confluency of ˜80%. The cells were washed once with phosphate buffered saline (PBS) at room temperature, 0.5 mL PBS was added to the cells, and then irradiated with ultraviolet rays. The cells were exposed to 50 mJ/cm^2 UV-B (Philips, 311 nm) for 2 minutes. […]
(§3) Detection of inflammatory factors: the standard curve of each cytokine (TNF-α, IL-8, IL-6) were generated by using the reference cytokine samples provided by the kit. […] The absorbance (OD value) was measured by microplate reader at the wavelength of 450 nm, and the concentration was calculated according to the standard curve.

Another test has as its system TNF-α. The test can be described thus: Anti-inflammatory test: TNF-α in UVB-stimulated keratinocytes. As to conditions: UV-B 50 mJ/cm^2 irradiated keratinocytes, 24 h, supernatant, maximum non-cytotoxic dose (combinations: half dose each). The class given is cell-based, human. The protocol: as §1, §2, §3
In the next test the test system is IL-8. The test can be described thus: Anti-inflammatory test: IL-8 in UVB-stimulated keratinocytes. Conditions: UV-B 50 mJ/cm^2 irradiated keratinocytes, 24 h, supernatant, maximum non-cytotoxic dose (combinations: half dose each). The class given is cell-based, human. As for the experimental part: as §1, §2, §3
In another test the test system is tyrosinase. The test can be described thus: Whitening test: inhibition of tyrosinase. Conditions: 1 mg/mL sample solutions (combinations mixed 1:1 or 1:1:1), tyrosine substrate, 30° C., absorbance 475 nm.

In the case of `C[N+](C)(C)[C@@H](Cc1c[nH]c(=S)[nH]1)C(=O)[O-]` [EGT, ergothioneine], in the test with IL-6, the “content of IL-6” value stood at 28 pg/mL. The “content of TNF-α” value in the test with TNF-α is given as “about 95 pg/ml”. In the test with IL-8, the “content of IL-8” value came to 23 pg/mL. In the test with tyrosinase, the “inhibition rate on tyrosinase” value was determined as 68%.
For `COc1cc(CCC(=O)CC(=O)CCc2ccc(O)c(OC)c2)ccc1O` [THC, tetrahydrocurcumin], the “content of IL-6” value with IL-6 stood at 27 pg/mL. Further, the “content of TNF-α” value in the test with TNF-α is reported as “about 90 pg/ml”. Besides, the “content of IL-8” value with IL-8 is 25 pg/mL.

The values are drawn from patent publication US20260069523A1, “SKIN CARE COMPOSITION AND USE THEREOF” (NANJING NUTRABUILDING BIO-TECH CO., LTD., priority 2023, published 2026).
